From publication PMC6102074 (European journal of medicinal chemistry, 2018)
Converted amounts (≈) assume the structure as drawn.

How the values were obtained:
[1] = kinetic solubility analysis in PBS solution; format: physicochemical
[2] = Pion's μSOL assay for kinetic solubility; format: physicochemical
[3] = after 60 minutes
VEGF = settings: human monocyte leukemia cells (THP1); previously reported, ref [9], [17]; cited from earlier work
rat microsome stability = settings: microsomes

**Q.** Which solubility kinetic (physchem) does the source give for O=C(Nc1ccccc1C(=O)Nc1ccccc1C(=O)NCc1ccco1)c1ccco1 [Compound 1] here?
**A.** 1.6 µg/mL (≈ 3.73 µM)

**Q.** For CCOc1ccccc1C(=O)Nc1ccccc1C(=O)Nc1cccc(S(=O)(=O)C(F)(F)F)c1 [Compound 63, 2-Ethoxy-N-(2-((3-((trifluoromethyl)sulfonyl)phenyl)carbamoyl)phenyl)benzamide], which solubility [1] is on record?
**A.** < 1.1 µM

**Q.** Which solubility [2] does the source give for CCOc1ccccc1C(=O)Nc1ncccc1C(=O)Nc1cccc(S(=O)(=O)C(F)(F)F)c1 [Compound 49, 2-(2-Ethoxybenzamido)-N-(3-((trifluoromethyl)sulfonyl)phenyl)nicotinamide] here?
**A.** < 1 µM

**Q.** For CCOc1ccccc1C(=O)Nc1cnccc1C(=O)Nc1cccc(S(=O)(=O)C(F)(F)F)c1 [Compound 50, 3-(2-Ethoxybenzamido)-N-(3-((trifluoromethyl)sulfonyl)phenyl)isonicotinamide], which solubility [2] is on record?
**A.** < 1 µM

**Q.** Which “parent remaining in mouse liver microsomes” value [3] does the source give for “3-(Cyclohexanecarboxamido)-N-(3-(trifluoromethyl)phenyl)-benzamide [Compound 3]” here?
**A.** 70%

**Q.** For CC(C)Oc1ccccc1C(=O)Nc1ccccc1C(=O)Nc1cccc(S(=O)(=O)C(F)(F)F)c1 [Compound 65, 2-Isopropoxy-N-(2-(3-(trifluoromethylsulfonyl)phenylcarbamoyl)phenyl)benzamide], which “activation of VEGF transcription” value (VEGF) is on record?
**A.** activate the transcription

**Q.** And the half-life (rat microsome stability)?
**A.** 28.2 min
